# Assay results as given in ChEMBL document CHEMBL1141801, “N-(jasmonoyl)tyrosine-derived compounds from flowers of broad beans (Vicia faba)” (J Nat Prod, 2005).
# Active and inactive are the calls of the source. The rule behind the calls is not given here.
# Key:
# [1] = biological target: T1, Tyrosinase (Agaricus bisporus) (UniProt O42713); experiment: Activity of mushroom tyrosinase assessed as specific activity pkat per mg of protein
# T1 sequence (whole entry): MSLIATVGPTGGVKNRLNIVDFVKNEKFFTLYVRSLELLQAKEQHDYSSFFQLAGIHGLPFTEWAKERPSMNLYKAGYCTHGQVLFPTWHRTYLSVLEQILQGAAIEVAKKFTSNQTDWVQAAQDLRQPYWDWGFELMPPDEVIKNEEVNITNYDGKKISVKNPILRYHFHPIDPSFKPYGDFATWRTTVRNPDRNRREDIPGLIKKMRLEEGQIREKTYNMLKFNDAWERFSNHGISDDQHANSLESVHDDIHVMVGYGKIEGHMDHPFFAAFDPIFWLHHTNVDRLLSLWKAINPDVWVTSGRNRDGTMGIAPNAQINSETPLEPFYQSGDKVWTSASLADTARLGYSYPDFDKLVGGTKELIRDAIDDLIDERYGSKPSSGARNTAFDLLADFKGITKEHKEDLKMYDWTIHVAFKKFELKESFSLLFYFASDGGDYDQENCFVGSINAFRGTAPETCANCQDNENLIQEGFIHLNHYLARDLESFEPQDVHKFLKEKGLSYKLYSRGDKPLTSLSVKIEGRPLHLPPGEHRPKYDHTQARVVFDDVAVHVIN
# [2] = system: Eschscholzia californica; experiment: Elicitor activity in Eschscholzia californica Cham. assessed as elicitation of chelirubine formation at 30 uM; type: functional, organism-based
# [3] = system: Eschscholzia californica; experiment: Elicitor activity in Eschscholzia californica Cham. assessed as elicitation of chelirubine formation at 300 uM; type: functional, organism-based
# [4] = system: Eschscholzia californica; experiment: Elicitor activity in Eschscholzia californica Cham. assessed as elicitation of chelirubine formation; type: functional, organism-based
smiles,measurement,setting,value
N[C@@H](Cc1ccc(O)cc1)C(=O)O,Activity,[1],15600
CC/C=C\CC1C(=O)CCC1CC(=O)N[C@@H](Cc1ccc(O)cc1)C(=O)O (mixture of isomers),Activity,[1],2320
CC/C=C\CC1C(=O)CCC1CC(=O)NCCc1ccc(O)c(O)c1 (racemic),Activity,[2],Active
same,Activity,[3],Active
CC/C=C\CC1C(=O)CCC1CC(=O)NCCc1ccc(O)cc1 (racemic),Activity,[1],5630
same,Activity,[2],Active
same,Activity,[3],Active
CC/C=C\CC1C(=O)CCC1CC(=O)O (racemic),Activity,[4],Active
